Measured values published in patent US20150133390A1, “Identification of New Therapeutic Uses for Known Therapeutic Agents” (The Board of Trustees of the Leland Stanford Junior …, priority 2012, published 2015).
“Also recorded” adds a separate entry of the source.

What was measured:
[1] = test system: graft infiltrating cells in cardiac allograft; experiment: Graft histology / immunohistochemistry of infiltrating cells at POD 7; assay type: in vivo, mouse; conditions: for number of infiltrating cells (immunohistochemistry): POD 7, compared to untreated AR
Procedure: (§1) FVB donor hearts were implanted into the abdomen of C57BL/6 WT mice representing a complete MHC mismatch, as described previously. […] Animal activity, body weight and graft viability (abdominal palpation) were assessed daily.
(§2) Before oral gavages of Atorvastatin and Dasatinib, aliquots were mixed thoroughly. Unused formulations were discarded. Treatment started the day prior to transplantation and lasted until the day before sacrifice at post operation day 7 by exsanguination. Grafts were harvested and divided into three equal parts for downstream analyses.
One third of the explanted allograft heart (POD7) was immediately fixed in […] buffered formalin, embedded in paraffin and subsequently stained with hematoxylin and eosin for histological assessment of tissue according to standard protocols. Pictures of the graft tissue were taken at 10× magnification using a Nikon E600 light microscope (Nikon Instruments Inc., Melville, N.Y.) and Spot V4.6 imaging software (Spot Imaging, Sterling Heights, Mich.).

[2] = test system: infiltrating cell subsets in cardiac allografts; experiment: Flow cytometry count of infiltrating cell subsets in cardiac allografts; assay type: in vivo, mouse; conditions: for number of infiltrating B220+ B cells compared to cyclosporine: POD 7, compared to cyclosporine group; for number of CD45+ infiltrating cells / number of infiltrating B220+ B cells / number of infiltrating CD4+ T cells / number of infiltrating CD8+ T cells / number of infiltrating CD11c+ dendritic cells / number of infiltrating F4/80+ macrophages / number of infiltrating NK1.1+ natural killer cells: POD 7, compared to untreated AR
Procedure: as §1, §2
Fluorescein isothiocyanate (FITC), phycoerythin (PE), or allophycocyanin-conjugated mAbs specific for mouse CD4 (GK1.5), CD8a (53-6.7), F4/80 (BM8), B220 (RA3-6B2), Gr1 (RB6-8C5), CD11c (N418), NK1.1 (PK136), CD45 (30-F11), and their isotype controls were purchased from BD Biosciences (San Jose, Calif.), eBioscience (San Diego, Calif.), or BioLegend (San Diego, Calif.). Immediately after graft explantation at day 7 post transplantation, one third of the cardiac allograft was homogenized in RPMI 1640 media with 2 mg/mL Collagenase D (Worthington Bio) and 10% FCS for 2 h at RT. Cells were first incubated with normal hamster serum, normal mouse serum (Jackson ImmunoResearch), and 5 μg/ml anti-CD16/32 mAb (2.4G2; BD Bioscience), then stained with FITC-, PE-, and APC-conjugated mAbs for 30 min at 4° C. To exclude the dead cells, 7-Amino-Actinomycin D (BD Bioscience) was added and incubated for 10 minutes before analysis. Expression of markers was determined by FACS Calibur (BD Bioscience) and FlowJo software (Tree Star).

[3] = test system: FVB donor hearts implanted into C57BL/6 WT mice (cardiac allograft); experiment: Graft survival in murine heterotopic cardiac transplant model of acute rejection; assay type: in vivo, mouse; conditions: for allograft survival compared to untreated AR / Median survival: FVB-to-C57BL/6 cardiac transplant; for allograft survival compared to untreated AR: 6 pairs per group; for Median survival: atorvastatin 75 and dasatinib 25 mg/kg/day oral gavage, cyclosporine 20 mg/kg/day i.p., followed to POD 30, untreated AR 10 days
Procedure: as §1, §2
Graft viability (abdominal palpation) were assessed daily for these animals until post operation day 30.

CRM genes = experiment: Transcriptional analysis of mouse heart allografts (microarray with IPA pathway analysis, Q-PCR of CRM genes); assay type: in vivo; conditions: treatment group against untreated AR group
Procedure: We performed functional pathway analysis using Pathway-Express (PE). We used meta effect-size as fold change in PE to identify significant pathways. We used FDR<0.1 as a threshold for identifying significant pathways. We performed network analysis using IPA with option to only include “direct relationship” in order to avoid spurious connections due to “indirect relations”.
QRT-PCR for the CIRM module genes in mouse allografts was performed using a high-throughput RT-PCR instrument (BioMark; Fluidigm, San Francisco, Calif.). […] Data was analyzed using the BioMark RT-PCR Analysis Software Version 2.0. Using the delta Ct method, gene expression in each sample was calculated relative to the expression in a universal RNA sample (human universal RNA, Stratagene, CA). […]
For whole mouse genome expression analysis, Agilent Whole Mouse Genome 4×44K 60mer oligonucleotide arrays (G2519F, Agilent Technologies, Palo Alto, Calif.) were used. […] After purification, using the RNeasy mini kit (Qiagen), cRNA yield and Cy incorporation efficiency (specific activity) into the cRNA were determined using a NanoDrop Spectrophotometer (NanoDrop Technologies). cRNAs showing a yield >825 ng and a specific activity of 8-20 pmol/μg were selected for further processing. […]

INPP5D = conditions: van Leuven et al., 2010; cited from earlier work

Row | SMILES | number of infiltrating cells (immunohistochemistry) [1] | number of infiltrating B220+ B cells compared to cyclosporine [2] | number of CD45+ infiltrating cells [2] | number of infiltrating B220+ B cells [2] | number of infiltrating CD4+ T cells [2] | number of infiltrating CD8+ T cells [2] | number of infiltrating CD11c+ dendritic cells [2] | number of infiltrating F4/80+ macrophages [2] | number of infiltrating NK1.1+ natural killer cells [2] | allograft survival compared to untreated AR [3] | Median survival [3] [days] | pathways affected (IPA pathway analysis of down-regulated genes) (CRM genes) | number of infiltrating cells (immunohistochemistry) relative to cyclosporine ([1]; POD 7, compared to treatment with cyclosporine (p>0.05)) | hazard ratio for graft survival ([3]; Cox-proportional hazard analysis, treated compared to untreated AR) | reduction of expression of INPP5D (INPP5D)
1 | CC(C)c1c(C(=O)Nc2ccccc2)c(-c2ccccc2)c(-c2ccc(F)cc2)n1CC[C@@H](O)C[C@@H](O)CC(=O)O [atorvastatin] | significantly reduced; also recorded: fewer infiltrating cells | reduced | significantly reduced | significantly reduced | reduced | reduced | significantly reduced | significantly reduced | significantly reduced | significantly extended allograft survival | 17 | monocyte- and macrophage-related pathways |  |  | 
2 | Cc1nc(Nc2ncc(C(=O)Nc3c(C)cccc3Cl)s2)cc(N2CCN(CCO)CC2)n1 [dasatinib] | significantly reduced; also recorded: fewer infiltrating cells | reduced | significantly reduced | significantly reduced | reduced | reduced | significantly reduced | significantly reduced | significantly reduced | significantly extended allograft survival | 24.5 | cell cycle-related pathways | equivalent | 66.26 | 
3 | COc1c(C)c2c(c(O)c1C/C=C(\C)CCC(=O)OCCN1CCOCC1)C(=O)OC2 [Mycophenolate mofetil] |  |  |  |  |  |  |  |  |  |  |  |  |  |  | more than 2 fold
